According to patent US8507724B2 (priority 2008, dated 2013):

Molecular target: T1, α1 homomeric glycine receptors (Rattus norvegicus, UniProt P07727)
T1 construct: expressed in transfected cells; host or cells: HEK 293 (transient transfection by electroporation, cDNA in pCIS2 vector)
T1 sequence (P07727 29-457): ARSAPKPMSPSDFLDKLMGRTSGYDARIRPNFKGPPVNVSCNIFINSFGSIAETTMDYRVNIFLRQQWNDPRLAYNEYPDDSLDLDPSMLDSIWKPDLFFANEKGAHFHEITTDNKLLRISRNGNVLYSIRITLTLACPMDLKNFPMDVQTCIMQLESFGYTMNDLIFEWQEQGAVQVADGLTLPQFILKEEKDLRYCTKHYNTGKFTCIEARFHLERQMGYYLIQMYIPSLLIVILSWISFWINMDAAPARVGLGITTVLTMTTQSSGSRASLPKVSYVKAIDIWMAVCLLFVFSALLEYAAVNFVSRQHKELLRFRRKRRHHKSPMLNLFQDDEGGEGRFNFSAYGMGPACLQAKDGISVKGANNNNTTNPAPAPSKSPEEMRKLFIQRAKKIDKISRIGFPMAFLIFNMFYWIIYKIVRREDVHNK
Experiment: Whole-cell patch-clamp, Cl- current activated via α1 homomeric glycine receptors in transfected HEK 293 cells
Format: cell-based
Protocol: Cells were cultured in Dulbecco's modified Eagle's medium (DMEM, Biochrom, Berlin, Germany), supplemented with 10% fetal calf serum (FCS, Biochrom, Berlin, Germany), 100 U ml^−1 penicillin and 100 μg ml^−1 streptomycin at 37° C. in a 5% CO2/air incubator. […] For co-transfection of rat α1 glycine receptor subunits, the corresponding cDNA, each subcloned in the pCIS2 expression vector (Invitrogen, San Diego, USA), was added to the suspension. To visualize transfected cells, they were co-transfected with cDNA of green fluorescent protein (GFP 10 μg ml^−1). For transfection, we used an electroporation device by EquiBio (Kent, UK).
The compounds according to the present invention under investigation were prepared as 1 M stock solution in ethanol, light-protected and stored in glass vessels at −20° C. Concentrations were calculated from the amount injected into the glass vials. Drug-containing vials were vigorously vortexed for 60 min. Glycine and picrotoxin were dissolved directly in bath solution.
Patch electrodes contained [mM] KCl 140, MgCl2 2, EGTA 11, HEPES 10, glucose 10; the bath solution contained [mM]
A tight electrical seal of several GΩ formed between the cell membrane and a patch-clamp electrode allows inward currents due to agonist-induced channel activation to resolve in the pA range. Electrical resistance of the pipettes was around 5 MΩ, corresponding to a total access resistance in the whole-cell configuration of about 10 MΩ. The compounds according to the present invention under investigation were applied to the cells via a smooth liquid filament achieved with a single outflow (glass tubing 0.15 mm inner diameter) connected to a piezo crystal. The cells were placed at the interface between this filament and the continuously flowing background solution. When a voltage pulse was applied to the piezo, the tube was moved up and down onto or away from the cell under investigation. Correct positioning of the cell in respect to the liquid filament was ensured applying a saturating (1000 μM) glycine pulse before and after each test experiment. Care was taken to ensure that the amplitude and the shape of the glycine-activated current had stabilized before proceeding with the experiment. Test solution and glycine (1000 μM) were applied via the same glass-polytetrafluoroethylen perfusion system, but from separate reservoirs. The contents of these reservoirs were mixed at a junction immediately before entering the superfusion chamber.
The compounds under test were applied alone in order to determine their direct agonistic effects. A new cell was used for each compound and each protocol, at least three different experiments were performed for each setting. The amount of the diluent ethanol corresponding to the highest compound concentration used was 34 000 μM.
For data acquisition and further analysis the inventors used the Axopatch 200B amplifier in combination with pClamp6 software (Axon Instruments, Union City, Calif., USA). Currents were filtered at 2 kHz. Fitting procedures were performed using a non-linear least-squares Marquardt-Levenberg algorithm. Details are provided in the appropriate figure legends or in the results section.
Activated currents were normalized to their own maximum response. The dose-response-curves were fitted according to (Inorm=[1+(EC50/[C])^nH]^−1), where Inorm is the current induced directly by the respective concentration [C] of the compound, normalized to the maximum inward current.

[1] = EC50 (nM), α1 homomer, initial tests, Hill fit to normalised response, rat α1 receptors in HEK 293

For `CC(C)c1cc(-c2ccc(Cl)cc2)cc(C(C)C)c1O` [4-(p-Cl—Ph)-propofol, 4-(para-Chlorophenyl)-propofol], the EC50 [1] was 0.2 ± 0.3 nM and the “nH (Hill coefficient), α1 homomer” value (initial tests, Hill fit to normalised response) was 1.1 ± 0.5.
For `CC(C)c1cc(-c2ccc(Cl)c(F)c2)cc(C(C)C)c1O` [p-(3-F,4-Cl—Ph)-propofol, Para-(3-Fluoro,4-chlorophenyl)-propofol], the EC50 [1] was 0.8 nM and the EC50 (EC50, further series of tests (later tests)) was 0.07 nM.
